Where “and” joins values, the source holds several entries; their conditions need not be identical. Identical values can stand only once.
Tests used:
[1] = system: normal human dermal fibroblasts (NHDF); assay: MTT reduction assay and observation of the cell layers: viability of fibroblasts after 48 hours of incubation; assay type: cell-based; conditions: for Visability (%): single replicates
Description: Normal human dermal fibroblasts (NHDF) were used at the 8th passage. Cells were cultured at 37° C., 5% CO2 in DMEM supplemented with L-glutamine 2 mM, 50 U/ml Penicillin, 50 μg/ml Streptomycin and 10% Foetal calf serum (FCS).

caspase-3/7 = assay: Staurosporine-induced caspase-3/7 activity in NHDF, measured in cell lysates with fluorogenic substrate Ac-DEVD-AMC; assay type: cell-based, human; conditions: for Caspase-3/7 activity (Fluorescence 380 nm/440 nm) / Caspase-3/7 activity - Background (Fluorescence 380 nm/440 nm) / Caspese-3/7 activity/proteins: single replicates
Description: The potential inhibitory effect of compounds 15(S)-HEPE EE and EPA EE was evaluated on staurosporine-induced caspase activation in normal human dermal fibroblasts (NHDF). […] Normal human dermal fibroblasts (NHDF) were used at the 8th passage. […] Fibroblasts were seeded in 24-well plates and cultured for 24 hours in culture medium. The medium was then removed and replaced by assay medium containing or not (control) the test compounds and cells were pre-incubated for 24 hours. […] The cells were then incubated for 24 hours. Non-stimulated controls (without inducer) were performed in parallel. All experimental conditions were performed in n=3. […] Enzyme activity assay and protein quantification assay were performed in separated plates due to the fact that DTT used in the lysis buffer for caspase activity interferes with protein quantification. […] Lysis buffer: HEPES buffer (pH 7.4) containing EDTA, Triton X-100, NP-40 and DTT Assay Buffer: HEPES buffer (pH 7.4) containing NaCl, EDTA, NP-40, glycerol and DTT Substrate: Ac-DEVD-AMC, tested at 10 μM (stock solution at 1.5 mM in DMSO) Reference inhibitor: […] Ac-DEVD-AMC is a synthetic tetrapeptide fluorogenic substrate for caspase-3 and caspase-7 and contains the amino acid sequence of the PARP cleavage site at […]. […] Enzymes cleave the tetrapeptide between D and AMC resulting in the release of fluorogenic AMC, which can be quantified with a spectrofluorometer. […] In parallel, an additional control (assay buffer containing the substrate) was also performed to determine the background signal. At the end of incubation, the fluorescence intensity emitted by the reaction product (cleaved Ac-DEVD-AMC) was measured at wavelengths λex 380 nm and λem 440 nm using a spectrofluorimeter (SPECTRAmax® Gemini, Molecular Devices).

[2] = 0.001 μg/ml, staurosporine-stimulated NHDF
[3] = 0.001 μg/ml, staurosporine-stimulated NHDF, listed as 16(8)-HE PE EE
[4] = 0.01 μg/ml, staurosporine-stimulated NHDF
[5] = 0.01 μg/ml, staurosporine-stimulated NHDF, listed as 16(8)-HE PE EE
[6] = 0.1 μg/ml, staurosporine-stimulated NHDF
[7] = 0.1 μg/ml, staurosporine-stimulated NHDF, listed as 16(8)-HE PE EE
[8] = 1 μg/ml, staurosporine-stimulated NHDF
[9] = 1 μg/ml, staurosporine-stimulated NHDF, listed as 16(8)-HE PE EE
[10] = 10 μg/ml, staurosporine-stimulated NHDF
[11] = 10 μg/ml, staurosporine-stimulated NHDF, listed as 16(8)-HE PE EE
[12] = 100 μg/ml, staurosporine-stimulated NHDF
[13] = 100 μg/ml, staurosporine-stimulated NHDF, listed as 16(8)-HE PE EE
[14] = 0.1 μm, inhibitor added in the reaction mix of stimulated control lysate
[15] = 0.1 μm, inhibitor added in the reaction mix of stimulated control lysate, listed as Ao-DEVO-CHO

## CC/C=C\C[C@H](O)/C=C/C=C\C/C=C\C/C=C\CCCC(=O)OCC [15(S)-HEPE EE]
[1]; 0.001 μg/ml
  Visability (%) Mean: 98%
  Visability (%): 99% and 97% and 98%
[1]; 0.01 μg/ml
  Visability (%) Mean: 96%
  Visability (%): 90% and 100% and 98%
[1]; 0.1 μg/ml
  Visability (%) Mean: 97%
  Visability (%): 99% and 96% and 98%
[1]; 1 μg/ml
  Visability (%) Mean: 97%
  Visability (%): 96% (2×) and 97%
[1]; 10 μg/ml
  Visability (%) Mean: 101%
  Visability (%): 100% and 102% and 101%
[1]; 30 μg/ml
  Visability (%) Mean: 99%
  Visability (%): 103% and 98% and 96%
[1]; 100 μg/ml
  Visability (%) Mean: 104%
  Visability (%): 103% and 105% and 104%
[1]; 300 μg/ml
  Visability (%) Mean: 100%
  Visability (%): 98% and 105% and 97%
caspase-3/7; [2]
  % inhibition: −37%
  % stimulated control: 134%
  Normalized data: Mean (caspase-3/7 activity/proteins): 114767 AU/mg
caspase-3/7; [3]
  Caspase-3/7 activity (Fluorescence 380 nm/440 nm): 1809 AU and 1753 AU and 1686 AU
  Caspase-3/7 activity - Background (Fluorescence 380 nm/440 nm): 1479 AU and 1423 AU and 1396 AU
  Caspese-3/7 activity/proteins: 109076 AU/mg and 129611 AU/mg and 105615 AU/mg
caspase-3/7; [4]
  % inhibition: −6%
  % stimulated control: 106%
  Normalized data: Mean (caspase-3/7 activity/proteins): 90306 AU/mg
caspase-3/7; [5]
  Caspase-3/7 activity (Fluorescence 380 nm/440 nm): 1495 AU and 1587 AU and 1789 AU
  Caspase-3/7 activity - Background (Fluorescence 380 nm/440 nm): 1166 AU and 1258 AU and 1459 AU
  Caspese-3/7 activity/proteins: 81085 AU/mg and 89757 AU/mg and 100075 AU/mg
caspase-3/7; [6]
  % inhibition: 4%
  % stimulated control: 98%
  Normalized data: Mean (caspase-3/7 activity/proteins): 82485 AU/mg
caspase-3/7; [7]
  Caspase-3/7 activity (Fluorescence 380 nm/440 nm): 1468 AU and 1697 AU and 1154 AU
  Caspase-3/7 activity - Background (Fluorescence 380 nm/440 nm): 1139 AU and 1367 AU and 825 AU
  Caspese-3/7 activity/proteins: 81102 AU/mg and 109799 AU/mg and 56654 AU/mg
caspase-3/7; [8]
  % inhibition: −9%
  % stimulated control: 108%
  Normalized data: Mean (caspase-3/7 activity/proteins): 93200 AU/mg
caspase-3/7; [9]
  Caspase-3/7 activity (Fluorescence 380 nm/440 nm): 1536 AU and 1600 AU and 1735 AU
  Caspase-3/7 activity - Background (Fluorescence 380 nm/440 nm): 1206 AU and 1270 AU and 1406 AU
  Caspese-3/7 activity/proteins: 86474 AU/mg and 94481 AU/mg and 93645 AU/mg
caspase-3/7; [10]
  % inhibition: 8%
  % stimulated control: 93%
  Normalized data: Mean (caspase-3/7 activity/proteins): 80078 AU/mg
caspase-3/7; [11]
  Caspase-3/7 activity (Fluorescence 380 nm/440 nm): 1439 AU and 1551 AU and 1514 AU
  Caspase-3/7 activity - Background (Fluorescence 380 nm/440 nm): 1109 AU and 1221 AU and 1184 AU
  Caspese-3/7 activity/proteins: 76241 AU/mg and 81395 AU/mg and 82597 AU/mg
caspase-3/7; [12]
  % inhibition: 83%
  % stimulated control: 26%
  Normalized data: Mean (caspase-3/7 activity/proteins): 21632 AU/mg
  effect on caspase-3/7 activity (in words): clear inhibitory effect
caspase-3/7; [13]
  Caspase-3/7 activity (Fluorescence 380 nm/440 nm): 663 AU and 729 AU and 660 AU
  Caspase-3/7 activity - Background (Fluorescence 380 nm/440 nm): 324 AU and 400 AU and 320 AU
  Caspese-3/7 activity/proteins: 15788 AU/mg and 15464 AU/mg and 19643 AU/mg
caspase-3/7; tested from 0.001 to 10 μg/ml, staurosporine-stimulated NHDF
  effect on caspase-3/7 activity (in words): no effect

## Ac-DEVD-CHO
caspase-3/7; 0.1 μM, added in the reaction mix
  inhibition of staurosporine-stimulated caspase-3/7 activity (in words): fully inhibited
caspase-3/7; [14]
  % inhibition: 109%
  % stimulated control: 1%
  Normalized data: Mean (caspase-3/7 activity/proteins): 954 AU/mg
caspase-3/7; [15]
  Caspase-3/7 activity (Fluorescence 380 nm/440 nm): 347 AU and 343 AU and 339 AU
  Caspase-3/7 activity - Background (Fluorescence 380 nm/440 nm): 17 AU and 13 AU and 10 AU
  Caspese-3/7 activity/proteins: 1254 AU/mg and 934 AU/mg and 674 AU/mg

Reference: patent publication US10716773B2, “Compositions comprising 15-HEPE and methods of treating or preventing cancer and neurologic disease” (Afimmune Limited, priority 2015, dated 2020)
